Where two headings read alike, the source gives them in different places.
How the values were obtained:
[1] = test system: peach trees (Prunus persica L. 'Redhaven' on Lovell rootstock); assay type: in vivo; settings: for Fruit (1 to 2 cm in diameter) one month after application / Fruit (2 to 4 cm in diameter) two months after application / Flowers without wilted pistils and stamens 24 hr after application: of 100 flowers; for Flowers without wilted pistils and stamens 24 hr after application: spring 2003
Method: Materials and methods: Initial work determined general foliar and blossom injury response to increasing rates of eugenol in apple and peach trees. Eugenol was prepared as a suspension in water and applied with a hand-held sprayer (Sure Shot, Milwaukee Sprayer Mfg. Co., Inc., Milwaukee, Wis.) to flowers to the point of drip. Spray was applied to peach trees (Prunus persica L. ‘Redhaven’ on Lovell rootstock) at 60 psi when air temperature was approximately 21° C. with sunny conditions. Naturally-derived eugenol, extracted from cinnamon (Cinnamomum zeylanicum) or clove (Syzgium aromaticum), was obtained from Citrus and Allied (Floral Park, N.Y.). Peach tree flowers were approximately 60% in bloom when eugenol was applied on 14 Apr. 2003. One tree received one application of each concentration of eugenol. One-hundred flowers per tree, uniformly distributed throughout the crown were selected for measurement 24 hr, 1 mo, and 2 mos after application. At 24 hr, flowers with wilted pistils and stamens were considered killed and nonviable. Surviving fruit were counted 1 and 2 mo after application. Peaches were harvested on 7 Aug. 2003 from each treated tree. Total fruit number and weight and size of individual fruit were measured.

[2] = test system: apple trees (Malus domestica 'Ace Spur Red Delicious' on M.7 rootstock); assay type: in vivo; settings: for Flowers without wilted pistils and stamens 24 hr after application / Fruit (1 to 2 cm in diameter) one month after application / Fruit (2 to 4 cm in diameter) two months after application: Apple; for Flowers without wilted pistils and stamens 24 hr after application: of 100 flower clusters, spring 2003; for Fruit (1 to 2 cm in diameter) one month after application / Fruit (2 to 4 cm in diameter) two months after application: same 100 flower clusters, five fruit each
Method: Eugenol was applied to apple trees (Malus domestica ‘Ace Spur Red Delicious’ on M.7 rootstock) on 23 Apr. 2003 when “king” blossoms had been fully opened and subtending flowers were just opening. Temperatures were 18° C. under partly sunny conditions. One-hundred five-cluster groups of flowers were evaluated for damage 24 hr after application. Surviving fruit from the original clusters were counted 1 and 2 mo after application. Apples were harvested on 17 Sep. 2003 from each treated tree. Total fruit number and weight and size of individual fruit were measured.

[3] = test system: 'Redhaven' on Lovell peach; assay: Peach blossom thinning with different thinning agents, mist blower back pack sprayer, 2004; assay type: in vivo, Prunus persica
Method: In 2004, fewer concentrations of eugenol were tested in comparison with other chemical blossom thinners in apple and peach. […] 2004 with a pressurized power mist blower back pack sprayer. Peach trees had been planted in April 1997 with a 3-m spacing between trees. Treatments included eugenol and Matran® each applied at 1, 2, 4, and 8%. […] Each tree was an experimental unit, buffer trees surrounded each treated tree, and there were 5 replications arranged in a completely randomized design.
Response variables included (1) percent flowers wilted 24 hr after application based on a 100 flower (peach) or flower cluster (apple) sample per tree; (2) number apple fruit retained after June drop from the same 100-flower sample per tree; (3) number and weight of fruit per tree at harvest by size category; (4) visual estimation from two people of foliar and shoot damage. Four branches per tree, each with 25 flowers, were measured; two branches opposite each other were perpendicular to the drive alley and the other two branches were opposite each other and parallel to the drive alley.

[4] = test system: 'Bisbee Spur Delicious' on MM.111 apple trees; assay: Apple blossom thinning with eugenol and ATS, 2004; assay type: in vivo, Malus domestica; settings: for Average fruit weight (g) / Total yield per tree (no.) / Flower burn back (% of flowers injured): Apple 'Bisbee'; for Average fruit weight (g) / Total yield per tree (no.) / Effect on yield: 2004; for Flower burn back (% of flowers injured): April 2004; for Effect on yield: Apple
Method: Each tree was an experimental unit, surrounded by buffer trees, with 4 single tree replications arranged in a completely randomized design.
Four branches per tree, each with 25 flowers, were measured; two branches opposite each other were perpendicular to the drive alley and the other two branches were opposite each other and parallel to the drive alley.

[5] = test system: 'Gala' on M.26 apple trees; assay type: in vivo, Malus domestica; settings: for Fruit (no./tree) / Fruit weight (kg/tree) / Individual fruit weight: Apple 'Gala'
Method: On Apr. […] Treatments were arranged in 4-tree plots and there were 4 blocks containing all 8 treatments. Data was collected from 2 trees per plot, so each treatment was an average of 8 trees. Data was analyzed by analysis of variance and Duncan's Multiple Range Test.

C=CCc1ccc(O)c(OC)c1 [Eugenol, 2-methoxy-4-(2-propenyl)phenol]
Concentration at which flower injury was apparent ([1]; Peach flowers, 2003): 1.5% | Fruit (1 to 2 cm in diameter) one month after application ([1]; Peach, 0.5% active ingredient): 64% | Fruit (2 to 4 cm in diameter) two months after application ([1]; Peach, 0.5% active ingredient): 40% | Flowers without wilted pistils and stamens 24 hr after application ([1]; Peach, 0.5% active ingredient): 100% | Fruit (1 to 2 cm in diameter) one month after application ([1]; Peach, 1% active ingredient): 28% | Fruit (2 to 4 cm in diameter) two months after application ([1]; Peach, 1% active ingredient): 16% | Flowers without wilted pistils and stamens 24 hr after application ([1]; Peach, 1% active ingredient): 100% | Fruit (1 to 2 cm in diameter) one month after application ([1]; Peach, 1.5% active ingredient): 36% | Fruit (2 to 4 cm in diameter) two months after application ([1]; Peach, 1.5% active ingredient): 16% | Flowers without wilted pistils and stamens 24 hr after application ([1]; Peach, 1.5% active ingredient): 95% | Fruit (1 to 2 cm in diameter) one month after application ([1]; Peach, 2% active ingredient): 20% | Fruit (2 to 4 cm in diameter) two months after application ([1]; Peach, 2% active ingredient): 6% | Flowers without wilted pistils and stamens 24 hr after application ([1]; Peach, 2% active ingredient): 85% | Fruit (1 to 2 cm in diameter) one month after application ([1]; Peach, 4% active ingredient): 20% | Fruit (2 to 4 cm in diameter) two months after application ([1]; Peach, 4% active ingredient): 5% | Flowers without wilted pistils and stamens 24 hr after application ([1]; Peach, 4% active ingredient): 62% | Fruit (1 to 2 cm in diameter) one month after application ([1]; Peach, 6% active ingredient): 22% | Fruit (2 to 4 cm in diameter) two months after application ([1]; Peach, 6% active ingredient): 5% | Flowers without wilted pistils and stamens 24 hr after application ([1]; Peach, 6% active ingredient): 50% | Fruit (1 to 2 cm in diameter) one month after application ([1]; Peach, 8% active ingredient): 17% | Fruit (2 to 4 cm in diameter) two months after application ([1]; Peach, 8% active ingredient): 3% | Flowers without wilted pistils and stamens 24 hr after application ([1]; Peach, 8% active ingredient): 39% | Fruit (1 to 2 cm in diameter) one month after application ([1]; Peach, 10% active ingredient): 0% | Fruit (2 to 4 cm in diameter) two months after application ([1]; Peach, 10% active ingredient): 5% | Flowers without wilted pistils and stamens 24 hr after application ([1]; Peach, 10% active ingredient): 31% | Time after application until peach flowers began to appear bleached and leaf tips developed necrotic lesions ([1]; Peach, 2003): ≤ 1 h | Fruit or leaf injury ([1]; in vivo): No fruit or leaf injury | Phytotoxicity by 2 months after application ([1]; in vivo): no sign of eugenol-induced phytotoxicity | Concentration at which flower injury was apparent ([2]; Apple flowers, 2003): 1.5% | Flowers without wilted pistils and stamens 24 hr after application ([2]; 0.5% active ingredient): 100% | Fruit (1 to 2 cm in diameter) one month after application ([2]; 0.5% active ingredient): 18% | Fruit (2 to 4 cm in diameter) two months after application ([2]; 0.5% active ingredient): 16% | Flowers without wilted pistils and stamens 24 hr after application ([2]; 1% active ingredient): 100% | Fruit (1 to 2 cm in diameter) one month after application ([2]; 1% active ingredient): 9% | Fruit (2 to 4 cm in diameter) two months after application ([2]; 1% active ingredient): 17% | Flowers without wilted pistils and stamens 24 hr after application ([2]; 1.5% active ingredient): 93% | Fruit (1 to 2 cm in diameter) one month after application ([2]; 1.5% active ingredient): 10% | Fruit (2 to 4 cm in diameter) two months after application ([2]; 1.5% active ingredient): 12% | Flowers without wilted pistils and stamens 24 hr after application ([2]; 2% active ingredient): 93% | Fruit (1 to 2 cm in diameter) one month after application ([2]; 2% active ingredient): 10% | Fruit (2 to 4 cm in diameter) two months after application ([2]; 2% active ingredient): 10% | Flowers without wilted pistils and stamens 24 hr after application ([2]; 4% active ingredient): 68% | Fruit (1 to 2 cm in diameter) one month after application ([2]; 4% active ingredient): 8% | Fruit (2 to 4 cm in diameter) two months after application ([2]; 4% active ingredient): 6% | Flowers without wilted pistils and stamens 24 hr after application ([2]; 6% active ingredient): 43% | Fruit (1 to 2 cm in diameter) one month after application ([2]; 6% active ingredient): 1% | Fruit (2 to 4 cm in diameter) two months after application ([2]; 6% active ingredient): 2% | Flowers without wilted pistils and stamens 24 hr after application ([2]; 8% active ingredient): 32% | Fruit (1 to 2 cm in diameter) one month after application ([2]; 8% active ingredient): 2% | Fruit (2 to 4 cm in diameter) two months after application ([2]; 8% active ingredient): 2% | Flowers without wilted pistils and stamens 24 hr after application ([2]; 10% active ingredient): 27% | Fruit (1 to 2 cm in diameter) one month after application ([2]; 10% active ingredient): 1% | Fruit (2 to 4 cm in diameter) two months after application ([2]; 10% active ingredient): 0% | Fruit or leaf injury ([2]; in vivo): no fruit or leaf injury | Phytotoxicity by 2 months after application ([2]; in vivo): no sign of eugenol-induced phytotoxicity | Rates at which fruit number was reduced [3]; 2004: higher than 2% | Average fruit weight (g) ([3]; rate 1%, 2004): 76 cde g | Total yield per tree (no.) ([3]; rate 1%, 2004): 684 a no. | Flower burn back (% of flowers injured) ([3]; rate 1%, April 2004): 15 b^a % | Average fruit weight (g) ([3]; rate 2%, 2004): 87 bcde g | Total yield per tree (no.) ([3]; rate 2%, 2004): 384 bc no. | Flower burn back (% of flowers injured) ([3]; rate 2%, April 2004): 27 ab % | Flower burn back (% of flowers injured) ([3]; rate 2%, April 2004, listed as eugenol): 27% | Average fruit weight (g) ([3]; rate 4%, 2004): 103 abc g | Total yield per tree (no.) ([3]; rate 4%, 2004): 470 abc no. | Flower burn back (% of flowers injured) ([3]; rate 4%, April 2004): 39 ab % | Flower burn back (% of flowers injured) ([3]; rate 4%, April 2004, listed as eugenol): 49% | Average fruit weight (g) ([3]; rate 8%, 2004): 112 ab g | Total yield per tree (no.) ([3]; rate 8%, 2004): 404 bc no. | Flower burn back (% of flowers injured) ([3]; rate 8%, April 2004): 49 a % | Flower burn back (% of flowers injured) ([3]; rate 8%, April 2004, listed as eugenol): approximately 50% | Average fruit weight (g) ([4]; rate 2%): 152 a g | Total yield per tree (no.) ([4]; rate 2%): 543 a no. | Flower burn back (% of flowers injured) ([4]; rate 2%): 45 a % | Average fruit weight (g) ([4]; rate 4%): 155 a g | Total yield per tree (no.) ([4]; rate 4%): 462 a no. | Flower burn back (% of flowers injured) ([4]; rate 4%): 50 a % | Average fruit weight (g) ([4]; rate 6%): 167 a g | Total yield per tree (no.) ([4]; rate 6%): 443 a no. | Flower burn back (% of flowers injured) ([4]; rate 6%): 53 a % | Effect on yield [4]: did not affect yield | Fruit (no./tree) ([5]; thinner applied at 4%, 2005): 137 no./tree | Fruit weight (kg/tree) ([5]; thinner applied at 4%, 2005): 20.5 kg/tree | Individual fruit weight ([5]; thinner applied at 4%, 2005): 148 g | Fruit (no./tree) ([5]; thinner applied at 6%, 2005): 86 no./tree | Fruit weight (kg/tree) ([5]; thinner applied at 6%, 2005): 10.2 kg/tree | Individual fruit weight ([5]; thinner applied at 6%, 2005): 129 g | Leaf injury ([5]; in vivo): injury was superficial, did not persist, and was not observed within four weeks of application

ammonium thiosulfate [ATS, reference compound]
Fruit number per peach tree compared with control [3]; 2004: reduced | Average fruit weight (g) ([3]; applied at 5.25 gal/A, 2004): 125 a g | Total yield per tree (no.) ([3]; applied at 5.25 gal/A, 2004): 345 c no. | Average fruit weight (g) ([4]; applied at 3.5 gal/A): 153 a g | Total yield per tree (no.) ([4]; applied at 3.5 gal/A): 570 a no. | Flower burn back (% of flowers injured) ([4]; applied at 3.5 gal/A): 50 a % | Effect on yield [4]: did not affect yield | Fruit (no./tree) ([5]; thinner applied at 2%, 2005): 789 no./tree | Fruit weight (kg/tree) ([5]; thinner applied at 2%, 2005): 83.3 kg/tree | Individual fruit weight ([5]; thinner applied at 2%, 2005): 109 g | Fruit (no./tree) ([5]; thinner applied at 4%, 2005): 706 no./tree | Fruit weight (kg/tree) ([5]; thinner applied at 4%, 2005): 79.8 kg/tree | Individual fruit weight ([5]; thinner applied at 4%, 2005): 120 g | Performance as thinner ([5]; Apple, 2005): not a good thinner

— patent US7635663B2, “Method for thinning fruit blossoms using eugenol” (The United States of America as represented by the …, priority 2006, dated 2009)
